Measurements published in patent publication US7078422B2, “Activator for peroxisome proliferator-activated receptor” (Nippon Chemiphar Co., Ltd., priority 2001, dated 2006).

Key:
GAL4-hPPARγ LBD = biological target: T1, GAL4-hPPARγ LBD (Homo sapiens, UniProt P37231); test: PPARγ transactivation activity (GAL4 chimeric receptor luciferase reporter in CV-1 cells); type: cell-based; details: tested compound at 10^−5 M, control 10^−5 M Rosiglitazone set to 100%, DMSO alone 0%, 40 hours
T1 construct: Receptor expression plasmid (GAL4-hPPARγ LBD, GAL4-hPPARδ LBD); expressed in transfected cells; host or cells: CV-1 cells
T1 sequence (P37231 238-503 limits assumed): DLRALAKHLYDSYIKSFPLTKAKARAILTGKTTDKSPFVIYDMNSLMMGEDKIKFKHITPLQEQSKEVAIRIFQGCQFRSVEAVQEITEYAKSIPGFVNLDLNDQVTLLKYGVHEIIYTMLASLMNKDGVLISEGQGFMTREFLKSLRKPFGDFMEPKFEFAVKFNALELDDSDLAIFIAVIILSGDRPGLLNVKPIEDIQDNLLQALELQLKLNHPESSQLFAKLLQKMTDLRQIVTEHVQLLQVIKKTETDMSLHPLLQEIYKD
Method: (§1) The luciferase activity is calibrated by the β-GAL activity. A relative ligand activity relating to PPARγ-activating effect is calculated in the same manner (see the below-described Example 3).
(§2) (1) Measurement of PPARγ, δ Transactivation Activity
(§3) Each of PPARγ & δ transactivation activities of the tested compound [compound of Example 1 and known PPARγ agonist (Rosiglitazone) and known PPARδ agonist (L-165041)] was measured in the manner described below.
CV-1 was obtained from Tohoku University Aging Medical Laboratory, Medical Cell Collection Center. All test compounds were dissolved in dimethylsulfoxide (DMSO) to give a test sample of 0.1% concentration.
Receptor expression plasmid (GAL4-hPPARγ LBD, GAL4-hPPARδ LBD), Luciferase expression plasmid (UASx4-TK-LUC), and β-galactosidase expression plasmid (βGAL) similar to Kliewer, S. A., et al., ((1992) Nature, 358:771–774) were employed. […]
The culture medium was removed and the cells were washed with PBS twice. […] (luciferase activity) was measured by means of MLR-100 type Microluminoreader (available from Corona Electrics Co., Ltd.). […] A relative PPAR activity was calculated based on the following: 0% (luciferase activity (control value) of cells treated with DMSO (0.1% concentration, solvent) alone), 100% (luciferase activity of cells treated with a control reagent (PPARγ: 10^−5 M Rosiglitazone, PPARδ: 10^−4 M L-165041)).

GAL4-hPPARδ LBD = biological target: T2, GAL4-hPPARδ LBD (Homo sapiens, UniProt Q03181); test: PPARδ transactivation activity (GAL4 chimeric receptor luciferase reporter in CV-1 cells); type: cell-based; details: tested compound at 10^−5 M, control 10^−4 M L-165041 set to 100%, DMSO alone 0%, 40 hours
T2 construct: A chimeric receptor expression plasmid (GAL4-hPPARδ LBD); expressed in transfected cells; host or cells: CV-1 cells
T2 sequence (Q03181 211-439 limits assumed): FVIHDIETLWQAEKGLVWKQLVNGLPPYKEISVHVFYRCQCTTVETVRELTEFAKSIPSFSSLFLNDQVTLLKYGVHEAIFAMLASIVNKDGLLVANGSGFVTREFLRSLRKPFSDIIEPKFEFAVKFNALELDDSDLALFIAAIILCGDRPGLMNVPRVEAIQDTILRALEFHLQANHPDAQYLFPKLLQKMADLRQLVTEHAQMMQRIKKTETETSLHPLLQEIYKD
Method: The PPARδ activating effect of the compound of the invention was determined by the following method:
A chimeric receptor expression plasmid (GAL4-hPPARδ LBD), a reporter plasmid (UASx4-TK-LUC) and β-galactosidase (β-GAL) are transfected into CV-1 cells by utilizing a lipofection reagent DMRIE-C (Life Technologies). Subsequently, it is incubated for 40 hours in the presence of a compound of the invention or a compound for comparison (GW-2433), and then the luciferase activity and β-GAL activity are measured on the soluble cells.
as §1, §2, §3
CV-1 was obtained from Tohoku University Aging Medical Laboratory, Medical Cell Collection Center. All test compounds were dissolved in dimethylsulfoxide (DMSO) to give a test sample of 0.1% concentration. […]
The culture medium was removed and the cells were washed with PBS twice. […] (luciferase activity) was measured by means of MLR-100 type Microluminoreader (available from Corona Electrics Co., Ltd.). […]

PPAR activity (relative value) for PPARγ (GAL4-hPPARγ LBD): 50%
PPAR activity (relative value) for PPARδ (GAL4-hPPARδ LBD): 93±3%
SMILES: CC(C)c1oc(-c2ccccc2Cl)nc1CCCC(=O)c1ccc(CC(=O)O)cc1 [Example 1, [4-[4-[2-(2-Chlorophenyl)-5-isopropyloxazol-4-yl]butyryl]phenyl]acetic acid]
